Reference: patent publication US8722687B2, “Imidazo [1,2-A]pyridine derivatives as FGFR kinase inhibitors for use in therapy” (Astex Therapeutics Ltd, priority 2009, dated 2014)

Columns and labels:
[1] = system: parental wild-type Ba/F3 cells; assay: Ba/F3 (WT) cell proliferation assay (Alamar Blue); type: cell-based, murine; conditions: read-out: BaF3 WT prolif; for IC50: BaF3, 72 hours, with mouse IL-3
Protocol: (§1) Ba/F3-TEL-FGFR3 & Ba/F3 (WT) Cell Proliferation Assays
(§2) Stably transfected Ba/F3-TEL-FGFR3 cells were plated out into black 96-well tissue culture plates with clear bottoms in RPMI medium containing 10% FBS and 0.25 mg/ml G418 at a density of 5×10^3 cells/well (200 μl per well). The parental wild-type Ba/F3 cells (DSMZ no.: ACC 300) were plated out into black 96-well tissue culture plates with clear bottoms in RPMI medium containing 10% FBS and 2 ng/ml mouse IL-3 (R&D Systems) at a density of 2.5×10^3 cells/well (200 μl per well). Plates were placed in an incubator overnight before adding the compounds the following day. Dilutions of compounds were made in DMSO starting at 10 mM and were diluted into the wells to give a final DMSO concentration of 0.1% in assay. Compounds were left on the cells for 72 hours before the plates were removed from the incubator and 20 μl of Alamar Blue™ (Biosource) was added to each well. Plates were placed in the incubator for 4-6 hours before reading plates at 535 nm (excitation)/590 nm (emission) on a Fusion plate reader (Packard). Where inhibition is high an IC50 can be determined.

Ba/F3-Flt3 cells = assay: Ba/F3-Flt3 assay (Alamar Blue); type: cell-based, murine; conditions: Mus musculus, 24 h; with 10 ng/ml murine IL3; read-out: Ba/F3-flt3 + IL3 pIC50 (converted)
From the text: Ba/F3, a murine interleukin-3 dependent pro-B cell line is increasingly popular as a model system for assessing both the potency and downstream signaling of kinase oncogenes, and the ability of small-molecule kinase inhibitors to block kinase activity. Facilitated by their growth properties. Ba/F3 cells have recently been adapted to high throughput assay formats for compound profiling. Further, several published approaches show promise in predicting resistance to small-molecule kinase inhibitors elicited by point mutations interfering with inhibitor binding (Ba/F3 cells and their use in kinase drug discovery; Markus Warmuth, Sungjoon Kim, Xiang-ju Gu, Gang Xia and Francisco Adria'n; Curr Opin Oncol 19:55-60).
Ba/F3-Flt3 cells (cultured in phenol red free RPMI-1640, 10% A FCS and 50 μg/ml Gentamycin at 37° C. and 5% 002) were plated at a density of 10000 cells in a total volume of 180 μl medium in a black TC-treated sterile 96-well plate (Corning). After 24 hours, drugs in different dilutions were added to a final volume of 200 μl and at a final DMSO concentration of 0.2% prior to incubation at 37° C., and 5% CO2.
After 24 h, to each well 40 μl Alamar Blue solution (Aldrich) was added and the cells were further incubated for 4 hours at 37° C. Fluorescence (ex. 544, em. 590 nm) was measured using a fluorescence reader (Labsystems) and IC50's were calculated.
In the condition containing IL3, 10 ng/ml of murine IL3 (PeproTech) was added during compound incubation.

VEGFR2 = biological target: T1, VEGFR2 (Homo sapiens, UniProt P35968); assay: VEGFR2 in vitro kinase inhibitory activity assay; type: biochemical; conditions: read-out: VEGFR2 IC50(μM) or % I
T1 construct: purchased Upstate
T1 sequence (P35968 20-1356): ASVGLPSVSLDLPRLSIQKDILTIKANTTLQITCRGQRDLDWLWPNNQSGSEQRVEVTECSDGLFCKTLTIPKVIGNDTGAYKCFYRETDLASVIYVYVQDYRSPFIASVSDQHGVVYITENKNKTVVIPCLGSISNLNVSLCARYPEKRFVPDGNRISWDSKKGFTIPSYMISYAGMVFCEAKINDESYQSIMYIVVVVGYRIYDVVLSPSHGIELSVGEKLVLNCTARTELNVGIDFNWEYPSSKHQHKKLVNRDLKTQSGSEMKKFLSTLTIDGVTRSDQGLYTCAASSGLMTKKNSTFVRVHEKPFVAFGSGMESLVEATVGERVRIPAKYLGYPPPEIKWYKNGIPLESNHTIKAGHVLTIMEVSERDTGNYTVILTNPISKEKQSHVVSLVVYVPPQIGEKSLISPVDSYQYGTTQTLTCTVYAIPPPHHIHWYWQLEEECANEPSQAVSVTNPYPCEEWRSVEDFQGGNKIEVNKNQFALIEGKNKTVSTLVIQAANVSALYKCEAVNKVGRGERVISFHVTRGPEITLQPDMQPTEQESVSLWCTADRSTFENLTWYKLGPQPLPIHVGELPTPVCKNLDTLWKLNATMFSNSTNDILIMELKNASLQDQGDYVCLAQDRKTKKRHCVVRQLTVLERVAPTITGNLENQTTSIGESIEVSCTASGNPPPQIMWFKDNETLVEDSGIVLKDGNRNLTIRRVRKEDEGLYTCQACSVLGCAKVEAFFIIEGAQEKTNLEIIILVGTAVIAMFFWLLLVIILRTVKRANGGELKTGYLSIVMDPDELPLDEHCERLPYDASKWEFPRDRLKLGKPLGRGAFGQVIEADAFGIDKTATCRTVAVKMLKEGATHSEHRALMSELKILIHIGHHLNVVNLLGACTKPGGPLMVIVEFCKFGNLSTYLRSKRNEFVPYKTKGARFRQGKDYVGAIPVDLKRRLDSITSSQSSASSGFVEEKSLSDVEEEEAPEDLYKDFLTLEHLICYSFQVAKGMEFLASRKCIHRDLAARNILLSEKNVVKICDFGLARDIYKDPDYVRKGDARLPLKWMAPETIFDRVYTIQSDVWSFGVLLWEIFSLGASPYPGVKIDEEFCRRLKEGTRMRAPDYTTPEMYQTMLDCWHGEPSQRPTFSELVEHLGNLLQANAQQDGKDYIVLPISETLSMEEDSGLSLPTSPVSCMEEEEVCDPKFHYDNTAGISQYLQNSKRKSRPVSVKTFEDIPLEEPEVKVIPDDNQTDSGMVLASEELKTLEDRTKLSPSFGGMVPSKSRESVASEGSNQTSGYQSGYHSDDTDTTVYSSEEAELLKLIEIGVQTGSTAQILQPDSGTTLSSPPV
Protocol: (§3) FGFR3, VEGFR2 and PDGFR in vitro Kinase Inhibitory Activity Assays
(§4) Enzymes (from Upstate), prepared at 2× final concentration, were incubated with test compounds, biotinylated Flt3 substrate (biotin-VASSDNEYFYVDF) (Cell Signalling Technology Inc.) and ATP in the appropriate assay buffer (Table 1). The reaction was allowed to proceed for 3 hours (FGFR3), 1 hour (VEGFR2, PDGFR-beta) at room temperature on a plate shaker at 700 rpm before being stopped with 35 mM EDTA, pH 8 (FGFR3, VEGFR2) or 55 mM EDTA, pH 8 (PDGFR-beta). 5× detection mix/50 mM HEPES pH 7.5, 0.1% BSA, 11.34 nM Eu-anti-pY (PY20) (PerkinElmer) 74 nM SA-XL665 (Cisbio) for FGFR3, 50 mM HEPES, pH 7.5, 0.1% BSA, 11.34 nM Eu-anti-pY (PY20), 187.5 nM SA-XL665 for VEGFR2 and 50 mM HEPES, pH 7.5, 0.1% BSA, 11.34 nM Eu-anti-pY (PT66) (PerkinElmer), 375 nM SA-XL665 (Cisbio) for PDGFR-beta) was then added to each well and the plate sealed and incubated at room temperature for one hour on a plate shaker at 700 rpm. The plate was then read on a Packard Fusion plate reader or a BMG Pherastar both in TRF mode.
Kinase Assay buffers were:
B: 50 mM HEPES pH 7.5, 6 mM MnCl2, 1 mM DTT, 0.01% TritonX-100, 0.1 mM Sodium orthovanadate

FGFR3 = biological target: T2, FGFR3 (Homo sapiens, UniProt P22607); assay: FGFR3 in vitro kinase inhibitory activity assay; type: biochemical; conditions: for IC50: read-out: FGFR3 IC50(μM) or % I
T2 construct: purchased Upstate
T2 sequence (P22607 23-806): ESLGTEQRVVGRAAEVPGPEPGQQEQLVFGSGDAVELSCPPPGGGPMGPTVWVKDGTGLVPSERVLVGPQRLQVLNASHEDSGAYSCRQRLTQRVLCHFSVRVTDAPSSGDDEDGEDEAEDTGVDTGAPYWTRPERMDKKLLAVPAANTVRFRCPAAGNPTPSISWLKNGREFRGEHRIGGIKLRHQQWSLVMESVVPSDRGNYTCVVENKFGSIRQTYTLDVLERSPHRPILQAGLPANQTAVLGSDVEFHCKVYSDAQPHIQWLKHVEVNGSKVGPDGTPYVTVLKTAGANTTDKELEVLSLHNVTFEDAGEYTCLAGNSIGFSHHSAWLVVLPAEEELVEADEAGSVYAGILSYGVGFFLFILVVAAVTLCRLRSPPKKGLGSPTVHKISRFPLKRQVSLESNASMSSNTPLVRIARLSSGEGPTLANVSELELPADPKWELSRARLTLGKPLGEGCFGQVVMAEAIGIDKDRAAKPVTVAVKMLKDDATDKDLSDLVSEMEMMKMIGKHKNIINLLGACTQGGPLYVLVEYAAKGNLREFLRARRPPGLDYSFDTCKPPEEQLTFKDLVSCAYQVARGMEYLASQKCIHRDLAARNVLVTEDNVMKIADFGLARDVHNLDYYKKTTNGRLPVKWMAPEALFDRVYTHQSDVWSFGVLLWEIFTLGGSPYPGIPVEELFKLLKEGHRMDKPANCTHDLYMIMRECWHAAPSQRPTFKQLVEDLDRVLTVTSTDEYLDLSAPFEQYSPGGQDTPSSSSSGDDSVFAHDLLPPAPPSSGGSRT
Protocol: as §3, §4

Ba/F3-TEL-FGFR3 cells = biological target: T3, Ba/F3-TEL-FGFR3 cells (Homo sapiens, UniProt P22607); assay: Ba/F3-TEL-FGFR3 cell proliferation assay (Alamar Blue); type: cell-based, murine; conditions: for GI50: 72 hours, read-out: BaF3-TEL-FGFR3 prolif
T3 construct: fused on or other part: TEL (ETV6) N-terminal oligomerising part fused to the FGFR3 kinase part; P41212 (Transcription factor ETV6)
T3 sequence (P22607 whole entry, change not shown, the tested form may be a part): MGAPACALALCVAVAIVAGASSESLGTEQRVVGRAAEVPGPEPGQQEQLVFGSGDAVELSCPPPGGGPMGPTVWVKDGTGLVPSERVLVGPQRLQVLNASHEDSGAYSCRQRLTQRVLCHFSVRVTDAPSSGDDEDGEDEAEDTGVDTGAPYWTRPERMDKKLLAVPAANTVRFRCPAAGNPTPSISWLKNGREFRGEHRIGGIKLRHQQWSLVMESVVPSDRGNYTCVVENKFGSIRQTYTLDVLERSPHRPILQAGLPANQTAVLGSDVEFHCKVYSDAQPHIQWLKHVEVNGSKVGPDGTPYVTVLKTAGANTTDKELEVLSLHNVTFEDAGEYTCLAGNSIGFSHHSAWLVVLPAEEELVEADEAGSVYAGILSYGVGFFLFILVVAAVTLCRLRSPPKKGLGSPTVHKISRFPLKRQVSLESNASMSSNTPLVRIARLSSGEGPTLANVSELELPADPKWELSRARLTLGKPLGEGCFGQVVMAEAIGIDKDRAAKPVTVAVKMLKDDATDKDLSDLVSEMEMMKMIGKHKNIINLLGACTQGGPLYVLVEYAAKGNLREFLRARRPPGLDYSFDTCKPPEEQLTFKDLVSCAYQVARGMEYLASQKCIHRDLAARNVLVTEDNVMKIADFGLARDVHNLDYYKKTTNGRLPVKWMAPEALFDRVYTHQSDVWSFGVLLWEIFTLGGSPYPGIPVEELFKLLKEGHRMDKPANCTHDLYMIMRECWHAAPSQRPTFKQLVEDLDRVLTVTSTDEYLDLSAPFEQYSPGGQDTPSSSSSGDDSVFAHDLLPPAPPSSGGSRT
Protocol: as §1, §2

Structure (SMILES)	IC50 (Ba/F3-Flt3 cells)	IC50 (VEGFR2)	IC50 (FGFR3)	GI50 (Ba/F3-TEL-FGFR3 cells)	FGFR3 IC50(μM) or % I (FGFR3; % I at 0.003 (unit not given))	BaF3-TEL-FGFR3 prolif (μM) (Ba/F3-TEL-FGFR3 cells; % at 0.100 μM)	inhibition at 3 µM (VEGFR2; 1 h, % I at 3 μM)	inhibition at 10 µM ([1]; Mus musculus, BaF3, 72 h)	IC50 [1]	inhibition at 3 µM ([1]; Mus musculus, BaF3, 72 h, % at 3.00 μM)	inhibition at 1 µM (VEGFR2; 1 h, % I at 1 μM)
CC(C)Oc1cc(NC(=O)NCC(F)(F)F)cc(-c2cnc3cc(-c4ncc(F)c(N)n4)ccn23)c1 [Compound F-1, 1-{3-[7-(4-Amino-5-fluoro-pyrimidin-2-yl)-imidazo[1,2-a]pyridin-3-yl]-5-isopropoxy-phenyl}-3-(2,2,2-trifluoro-ethyl)-urea]	> 10000 nM	1.35 µM	0.0072 µM	120 nM				42%			
CC(C)Oc1cc(NC(=O)NCC(F)(F)F)cc(-c2cnc3cc(-c4ncccn4)ccn23)c1 [Compound F-2, 1-[3-Isopropoxy-5-(7-pyrimidin-2-yl-imidazo[1,2-a]pyridin-3-yl)-phenyl]-3-(2,2,2-trifluoro-ethyl)-urea]	> 10000 nM	1.14 µM	0.0144 µM	170 nM				33%			
CC(C)Oc1cc(NC(=O)NCC(F)(F)F)cc(-c2cnc3cc(C(=O)C4CC4)ccn23)c1 [Compound F-6, 1-[3-(7-Cyclopropanecarbonyl-imidazo[1,2-a]pyridin-3-yl)-5-isopropoxy-phenyl]-3-(2,2,2-trifluoro-ethyl)-urea]	> 10000 nM	0.074 µM	0.0012 µM	31 nM					5600 nM		
CC(C)Oc1cc(NC(=O)NCC(F)(F)F)cc(-c2cnc3cc(-c4ccnc(C(F)(F)F)n4)ccn23)c1 [Compound F-8, 1-{3-Isopropoxy-5-[7-(2-trifluoromethyl-pyrimidin-4-yl)-imidazo[1,2-a]pyridin-3-yl]-phenyl}-3-(2,2,2-trifluoro-ethyl)-urea]	> 10000 nM	1.2 µM	0.034 µM	170 nM					~2000 nM		
CCNC(=O)Nc1cc(OC(C)C)cc(-c2cnc3cc(-c4nncs4)ccn23)c1 [Compound F-10, 1-Ethyl-3-[3-isopropoxy-5-(7-[1,3,4]thiadiazol-2-yl-imidazo[1,2-a]pyridin-3-yl)-phenyl]-urea]	> 10000 nM	0.36 µM	0.013 µM	230 nM				34%			
Cc1nnc(-c2ccn3c(-c4cc(NC(=O)NCC(F)(F)F)cc(OC5CCC5)c4)cnc3c2)o1 [Compound F-11, 1-{3-Cyclobutoxy-5-[7-(5-methyl-[1,3,4]oxadiazol-2-yl)-imidazo[1,2-a]pyridin-3-yl]-phenyl}-3-(2,2,2-trifluoro-ethyl)-urea]	> 10000 nM		0.046 µM	520 nM				14%			59%
CC(C)Oc1cc(NC(=O)NCC(F)(F)F)cc(-c2cnc3cc(N4CCC(F)(F)CC4)ccn23)c1 [Compound F-13, 1-{3-[7-(4,4-Difluoro-piperidin-1-yl)-imidazo[1,2-a]pyridin-3-yl]-5-isopropoxy-phenyl}-3-(2,2,2-trifluoro-ethyl)-urea]	> 10000 nM		0.061 µM	820 nM			55%		3200 nM		
CCOc1cc(NC(=O)NCC(F)(F)F)cc(-c2cnc3cc(-c4ccnc(C(F)(F)F)n4)ccn23)c1 [Compound F-16, 1-{3-Ethoxy-5-[7-(2-trifluoromethyl-pyrimidin-4-yl)-imidazo[1,2-a]pyridin-3-yl]-phenyl}-3-(2,2,2-trifluoro-ethyl)-urea]	> 10000 nM	0.4 µM	0.027 µM	470 nM				32%			
CC(C)Oc1cc(NC(=O)NCC(F)(F)F)cc(-c2cnc3cc(OCCO)ccn23)c1 [Compound F-17, 1-{3-[7-(2-Hydroxy-ethoxy)-imidazo[1,2-a]pyridin-3-yl]-5-isopropoxy-phenyl}-3-(2,2,2-trifluoro-ethyl)-urea]	> 10000 nM	0.51 µM	0.017 µM	500 nM				0%			

Continued, in another order:

IC50 (Ba/F3-Flt3 cells)	IC50 (VEGFR2)	IC50 (FGFR3)	GI50 (Ba/F3-TEL-FGFR3 cells)	FGFR3 IC50(μM) or % I (FGFR3; % I at 0.003 (unit not given))	BaF3-TEL-FGFR3 prolif (μM) (Ba/F3-TEL-FGFR3 cells; % at 0.100 μM)	inhibition at 3 µM (VEGFR2; 1 h, % I at 3 μM)	Structure (SMILES)	inhibition at 10 µM ([1]; Mus musculus, BaF3, 72 h)	IC50 [1]	inhibition at 3 µM ([1]; Mus musculus, BaF3, 72 h, % at 3.00 μM)	inhibition at 1 µM (VEGFR2; 1 h, % I at 1 μM)
> 10000 nM	0.48 µM	0.0087 µM	330 nM				Cc1nc(-c2ccn3c(-c4cc(NC(=O)NCC(F)(F)F)cc(OC(C)C)c4)cnc3c2)ccc1F [Compound F-3, 1-{3-[7-(5-Fluoro-6-methyl-pyridin-2-yl)-imidazo[1,2-a]pyridin-3-yl]-5-isopropoxy-phenyl}-3-(2,2,2-trifluoro-ethyl)-urea]		~8000 nM		
> 10000 nM	0.1 µM			45.0% at 0.003	50.0% at 0.100 μM		Cc1nc(N)cc(-c2ccn3c(-c4cc(NC(=O)NCC(F)(F)F)cc(OC(C)C)c4)cnc3c2)n1 [Compound F-4, 1-{3-[7-(6-Amino-2-methyl-pyrimidin-4-yl)-imidazo[1,2-a]pyridin-3-yl]-5-isopropoxy-phenyl}-3-(2,2,2-trifluoro-ethyl)-urea]	5%			
> 10000 nM	0.635 µM	0.0154 µM	220 nM				Cc1nnc(-c2ccn3c(-c4cc(NC(=O)NCC(F)(F)F)cc(OC(C)C)c4)cnc3c2)o1 [Compound F-5, 1-{3-Isopropoxy-5-[7-(5-methyl-[1,3,4]oxadiazol-2-yl)-imidazo[1,2-a]pyridin-3-yl]-phenyl}-3-(2,2,2-trifluoro-ethyl)-urea]	59%			
> 10000 nM	0.17 µM	0.018 µM	350 nM				COCc1cc(NC(=O)NCC(F)(F)F)cc(-c2cnc3cc(-c4nnc(C)o4)ccn23)c1 [Compound F-7, 1-{3-Methoxymethyl-5-[7-(5-methyl-[1,3,4]oxadiazol-2-yl)-imidazo[1,2-a]pyridin-3-yl]-phenyl}-3-(2,2,2-trifluoro-ethyl)-urea]	0%			
> 10000 nM	0.057 µM	0.0093 µM	240 nM				COCc1cc(NC(=O)NCC(F)(F)F)cc(-c2cnc3cc(-c4ccnc(C(F)(F)F)n4)ccn23)c1 [Compound F-9, 1-{3-Methoxymethyl-5-[7-(2-trifluormethyl-pyrimidin-4-yl)-imidazo[1,2-a]pyridin-3-yl]-phenyl}-3-(2,2,2-trifluoro-ethyl)-urea]			17%	
> 10000 nM	0.34 µM	0.025 µM	370 nM				CCOc1cc(NC(=O)NCC(F)(F)F)cc(-c2cnc3cc(-c4nnc(C)o4)ccn23)c1 [Compound F-15, 1-{3-Ethoxy-5-[7-(5-methyl-[1,3,4]oxadiazol-2-yl)-imidazo[1,2-a]pyridin-3-yl]-phenyl}-3-(2,2,2-trifluoro-ethyl)-urea]	23%			
